Like-named read-outs stand apart in the source and are kept apart here.
Tests used:
S. aureus = assay: MIC, CLSI broth microdilution in CAMHB with 0-10% pulmonary surfactant (avibactam fixed at 4 μg/mL in combination); format: cell-based, Staphylococcus aureus
Procedure: (§1) The bacterial strains used in this testing were part of the microbiological culture collection housed at AstraZeneca R&D Boston (AstraZeneca Research Collection, designated ARC). The panel of bacterial isolates used for this testing was comprised of five CLSI QC reference strains and the remainder were either recent clinical isolates expressing β-lactamases or isolates from the primary bacterial screening panels.
(§2) MIC values were determined using the CLSI broth microdilution methodology with slight variation. Stock compound mother plates were prepared and used to spot 2 μL aliquots of serial 2-fold drug dilutions to columns 1-11 of 96-well daughter plates using a Perkin-Elmer MiniTrak™ MultiPosition dispenser. […] An inoculum volume of 100 μL (5×10E^5 CFU/mL) in CAMHB containing 0, 1, 2.5, 5, or 10% pulmonary surfactant was added using a multichannel Finnpipette® to each well of the 96-well plate.
(§3) The minimum inhibitory concentration (MIC) values against each organism/drug combination were determined using broth microdilution methodology according to CLSI guidelines. The recommended reference bacterial strains for each test group and reference compounds were incorporated into each test. For Gram-negatives, the reference bacterial strains were Escherichia coli ATCC 25922, E. coli ATCC 35218, Klebsiella pneumoniae ATCC 700603, and Pseudomonas aeruginosa ATCC 27853. Staphylococcus aureus ATCC 29213 was the reference bacterial strain for the Gram-positives.
(§4) MIC values for individual isolates were read visually. The MICs for each compound or combination in pulmonary surfactant was compared to the compound or combination tested in CAMHB alone.

[1] = tested on: Gram-positive or Gram-negative bacterial strains; assay: MIC in pulmonary surfactant compared with CAMHB alone, whole strain panel; format: cell-based; conditions: up to 10% pulmonary surfactant vs CAMHB alone; any strain tested
Procedure: as §1, §2
The minimum inhibitory concentration (MIC) values against each organism/drug combination were determined using broth microdilution methodology according to CLSI guidelines. The recommended reference bacterial strains for each test group and reference compounds were incorporated into each test. […]
MIC values for individual isolates were read visually. […]

P. aeruginosa [2] = assay: MIC, CLSI broth microdilution in CAMHB with 0-10% pulmonary surfactant (avibactam fixed at 4 μg/mL in combination); format: cell-based, Pseudomonas aeruginosa
Procedure: as §1, §2, §3, §4

P. aeruginosa [3] = assay: Neutropenic thigh infection model (CD-1 mice), exposure response of ceftazidime q2h and avibactam; format: in vivo, Pseudomonas aeruginosa; conditions: for % fT>CT required to support a bacteriostatic effect: CT 1 mg/L; for Emax model maximum / Emax model minimum: ceftazidime q2h and avibactam q2h, SE between brackets; for % fT > CT1 of avibactam associated with 24-h stasis: CT1 = threshold concentration of 1 mg/L
Procedure: CD-1 neutropenic mice were infected with appr. 10^6 cfu β-lactamase-producing P. aeruginosa strains in the thigh.
Outbred female CD-1 mice (Charles River, Netherlands), 4 to 5 weeks old, weighing 20 to 25 g were used in the experiments. Granulocytopenia was induced by two doses of cyclophosphamide s.c.: one at four days (150 mg/kg) and the other at one day (100 mg/kg) before the infection experiment.
The neutropenic mice were infected with 2 P. aeruginosa strains per animal, one in the left and one in the right thigh. 0.05 mL of bacterial suspension consisting of approximately 10^5-10^6 bacteria was inoculated intramuscularly. […] All dosing regimens were performed in at least two animals. At t=0 h, 2 mice were humanely sacrificed to determine the initial inoculum just before treatment. All other animals were sacrificed at t=24 h unless the welfare of the animals indicated earlier termination was necessary, following animal welfare regulations. Thighs were taken and moved to a pre-cooled 10-mL plastic tube (Transport Tube, Omnilabo, NL) ? containing 2 mL phosphate buffered saline (PBS; NaCl 8.00 g/L, Na2HPO42H2 1.44 g/L, KH2PO4 0.26 g/L, pH 7.2-7.4). Subsequently thighs were ground using an Ultra-Turrax (IKA Labortechnik, Germany). A tenfold dilution series was prepared and 3×10 μL plated (Chromagar, Biomerieux, NL) per dilution. The following day, colonies were counted and the number of cfu per thigh calculated. The drug effect was then determined as the difference between the log10[cfu/thigh] values at t=24 h and t=0 h (mean value of 2 mice) expressed as “dcfu”.
The amount of avibactam administered varied in frequency and dose. […] The drug effect was determined as the difference between the log10 [cfu/thigh] values at t=24 h and t=0 h (mean value of 2 mice) expressed as dcfu. Free drug concentrations were used in all calculations. […] Oral presentation at the ? 52nd Interscience Conference on Antimicrobial Agents and Chemotherapy, San Francisco, Calif. Abstract #A-1760).

[4] = Protein binding, equilibrium dialysis chamber, LC-MS/MS; format: in vitro ADME
Procedure: Blood was separated from plasma using a cooled centrifuge. Samples were split and stored at −80° C.

[5] = 6 P. aeruginosa strains, with fixed ceftazidime q2h, thigh
[6] = strain 1, thigh infection, Dose CAZ 32 mg/kg
[7] = strain 5, thigh infection, Dose CAZ 64 mg/kg
[8] = strain 7, thigh infection, Dose CAZ 64 mg/kg
[9] = strain 11, thigh infection, Dose CAZ 64 mg/kg
[10] = strain 18, thigh infection, Dose CAZ 64 mg/kg
[11] = strain 19, thigh infection, Dose CAZ 32 mg/kg

NC(=O)[C@@H]1CC[C@@H]2CN1C(=O)N2OS(=O)(=O)[O-].[Na+] [avibactam, [(2S,5R)-2-carbamoyl-7-oxo-1,6-diazabicyclo[3.2.1]octan-6-yl]hydrogen sulfate]
MIC (S. aureus; S. aureus ARC12 (CLSI QC strain, ATCC 29213), surfactant 0%): >64 µg/mL
MIC (S. aureus; S. aureus ARC12 (CLSI QC strain, ATCC 29213), surfactant 1%): >64 µg/mL
MIC (S. aureus; S. aureus ARC12 (CLSI QC strain, ATCC 29213), surfactant 2.5%): >64 µg/mL
MIC (S. aureus; S. aureus ARC12 (CLSI QC strain, ATCC 29213), surfactant 5%): >64 µg/mL
MIC (S. aureus; S. aureus ARC12 (CLSI QC strain, ATCC 29213), surfactant 10%): >64 µg/mL
MIC (S. aureus; S. aureus ARC516 (MRSA, quinolone-resistant), surfactant 0%): >64 µg/mL
MIC (S. aureus; S. aureus ARC516 (MRSA, quinolone-resistant), surfactant 1%): >64 µg/mL
MIC (S. aureus; S. aureus ARC516 (MRSA, quinolone-resistant), surfactant 2.5%): >64 µg/mL
MIC (S. aureus; S. aureus ARC516 (MRSA, quinolone-resistant), surfactant 5%): >64 µg/mL
MIC (S. aureus; S. aureus ARC516 (MRSA, quinolone-resistant), surfactant 10%): >64 µg/mL
MIC increase in pulmonary surfactant [1]: no MIC increases were observed
MIC (P. aeruginosa [2]; P. aeruginosa ARC3 (CLSI QC strain, ATCC 27853), surfactant 1%): >64 µg/mL
MIC (P. aeruginosa [2]; P. aeruginosa ARC3 (CLSI QC strain, ATCC 27853), surfactant 2.5%): >64 µg/mL
MIC (P. aeruginosa [2]; P. aeruginosa ARC3 (CLSI QC strain, ATCC 27853), surfactant 5%): >64 µg/mL
MIC (P. aeruginosa [2]; P. aeruginosa ARC3 (CLSI QC strain, ATCC 27853), surfactant 10%): >64 µg/mL
MIC (P. aeruginosa [2]; P. aeruginosa ARC545 (PAO1), surfactant 1%): >64 µg/mL
MIC (P. aeruginosa [2]; P. aeruginosa ARC545 (PAO1), surfactant 2.5%): >64 µg/mL
MIC (P. aeruginosa [2]; P. aeruginosa ARC545 (PAO1), surfactant 5%): >64 µg/mL
MIC (P. aeruginosa [2]; P. aeruginosa ARC545 (PAO1), surfactant 10%): >64 µg/mL
MIC (P. aeruginosa [2]; P. aeruginosa ARC2532 (Clinical isolate), surfactant 0%): >64 µg/mL
MIC (P. aeruginosa [2]; P. aeruginosa ARC2532 (Clinical isolate), surfactant 1%): >64 µg/mL
MIC (P. aeruginosa [2]; P. aeruginosa ARC2532 (Clinical isolate), surfactant 2.5%): >64 µg/mL
MIC (P. aeruginosa [2]; P. aeruginosa ARC2532 (Clinical isolate), surfactant 5%): >64 µg/mL
MIC (P. aeruginosa [2]; P. aeruginosa ARC2532 (Clinical isolate), surfactant 10%): >64 µg/mL
MIC (P. aeruginosa [2]; P. aeruginosa ARC2761 (Clinical isolate), surfactant 1%): >64 µg/mL
MIC (P. aeruginosa [2]; P. aeruginosa ARC2761 (Clinical isolate), surfactant 2.5%): >64 µg/mL
MIC (P. aeruginosa [2]; P. aeruginosa ARC2761 (Clinical isolate), surfactant 5%): >64 µg/mL
MIC (P. aeruginosa [2]; P. aeruginosa ARC2761 (Clinical isolate), surfactant 10%): >64 µg/mL
MIC (P. aeruginosa [2]; P. aeruginosa ARC3508 (derepressed AmpC), surfactant 0%): >64 µg/mL
MIC (P. aeruginosa [2]; P. aeruginosa ARC3508 (derepressed AmpC), surfactant 1%): >64 µg/mL
MIC (P. aeruginosa [2]; P. aeruginosa ARC3508 (derepressed AmpC), surfactant 2.5%): >64 µg/mL
MIC (P. aeruginosa [2]; P. aeruginosa ARC3508 (derepressed AmpC), surfactant 5%): >64 µg/mL
MIC (P. aeruginosa [2]; P. aeruginosa ARC3508 (derepressed AmpC), surfactant 10%): >64 µg/mL
MIC (P. aeruginosa [2]; Pseudomonas aeruginosa, ATCC27853, P. aeruginosa ARC3 (CLSI QC strain, ATCC 27853), surfactant 0%, read-out: MIC): > 64 µg/mL
MIC (P. aeruginosa [2]; Pseudomonas aeruginosa, P. aeruginosa ARC545 (PAO1), surfactant 0%, read-out: MIC): > 64 µg/mL
MIC (P. aeruginosa [2]; Pseudomonas aeruginosa, P. aeruginosa ARC2761 (Clinical isolate), surfactant 0%, read-out: MIC): > 64 µg/mL
mean % fT>CT 1 mg/L for static effect (P. aeruginosa [3]; [5]): 36.3%
range of % fT>CT 1 mg/L for static effect (P. aeruginosa [3]; [5]): 14.1-62.5
% fT>CT required to support a bacteriostatic effect (P. aeruginosa [3]; strain 7, thigh): 30.2
% fT>CT required to support a bacteriostatic effect (P. aeruginosa [3]; strain 18, thigh): 74.1
% fT>CT required for static effect (P. aeruginosa [3]; CT of 1 mg/L, dose fractionation studies, 2 strains, with ceftazidime q2h, thigh): 30.2-74.1
% fT > CT1 of avibactam associated with 24-h stasis, mean (P. aeruginosa [3]; mean of 6 strains (sd 17.8), thigh infection, CT1 = 1 mg/L): 36.3%
Emax model maximum (P. aeruginosa [3]; strain 1): 1.26
Emax model minimum (P. aeruginosa [3]; strain 1): ≈′−727.5
TDD AVI associated with 24-h stasis (P. aeruginosa [3]; [6]): 123.70 mg/kg
log TDD AVI associated with 24-h stasis (P. aeruginosa [3]; [6]): 2.09
% fT > CT1 of avibactam associated with 24-h stasis (P. aeruginosa [3]; [6]): 37.2%
Emax model maximum (P. aeruginosa [3]; strain 5): ≈0.70
Emax model minimum (P. aeruginosa [3]; strain 5): −3.25 (0.95)
TDD AVI associated with 24-h stasis (P. aeruginosa [3]; [7]): 33.59 mg/kg
log TDD AVI associated with 24-h stasis (P. aeruginosa [3]; [7]): 1.53
% fT > CT1 of avibactam associated with 24-h stasis (P. aeruginosa [3]; [7]): 14.1%
Emax model maximum (P. aeruginosa [3]; strain 7): 1.81 (0.29)
Emax model minimum (P. aeruginosa [3]; strain 7): −2.83 (1.41)
TDD AVI associated with 24-h stasis (P. aeruginosa [3]; [8]): 267.47 mg/kg
log TDD AVI associated with 24-h stasis (P. aeruginosa [3]; [8]): 2.43
% fT > CT1 of avibactam associated with 24-h stasis (P. aeruginosa [3]; [8]): 50.4%
Emax model maximum (P. aeruginosa [3]; strain 11): 1.40 (0.50)
Emax model minimum (P. aeruginosa [3]; strain 11): −2.95 (0.41)
TDD AVI associated with 24-h stasis (P. aeruginosa [3]; [9]): 77.88 mg/kg
log TDD AVI associated with 24-h stasis (P. aeruginosa [3]; [9]): 1.89
% fT > CT1 of avibactam associated with 24-h stasis (P. aeruginosa [3]; [9]): 29.1%
Emax model maximum (P. aeruginosa [3]; strain 18): 0.83 (0.36)
Emax model minimum (P. aeruginosa [3]; strain 18): −2.36 (0.23)
TDD AVI associated with 24-h stasis (P. aeruginosa [3]; [10]): 58.91 mg/kg
log TDD AVI associated with 24-h stasis (P. aeruginosa [3]; [10]): 1.77
% fT > CT1 of avibactam associated with 24-h stasis (P. aeruginosa [3]; [10]): 24.2%
Emax model maximum (P. aeruginosa [3]; strain 19): 2.46 (0.22)
Emax model minimum (P. aeruginosa [3]; strain 19): −1.42 (0.46)
TDD AVI associated with 24-h stasis (P. aeruginosa [3]; [11]): 541.34 mg/kg
log TDD AVI associated with 24-h stasis (P. aeruginosa [3]; [11]): 2.73
% fT > CT1 of avibactam associated with 24-h stasis (P. aeruginosa [3]; [11]): 62.5%
effect on ceftazidime static % fT>MIC (P. aeruginosa [3]; thigh infection, all strains): reduced
fraction unbound [4]: 0.92
